Measurements as given in patent publication US20170320870A1 (Medical Research Council Technology, priority 2009, published 2017).

Key:
Format in all cases: biochemical
[1] = biological target: each specific kinase (kinase selectivity panel, Table 2) (Homo sapiens, UniProt O00141); assay: Kinase selectivity: percentage inhibition of each specific kinase at 1 μM inhibitor concentration; settings: SGK1
Experimental: (§1) Values are expressed as percentage inhibition of the each specific kinase at 1 μM inhibitor concentration.

[2] = biological target: each specific kinase (kinase selectivity panel, Table 2) (Homo sapiens, UniProt Q12851); assay: as above; settings: GCK
Sequence of each specific kinase (kinase selectivity panel, Table 2) (Homo sapiens, UniProt Q12851) (Q12851 whole entry): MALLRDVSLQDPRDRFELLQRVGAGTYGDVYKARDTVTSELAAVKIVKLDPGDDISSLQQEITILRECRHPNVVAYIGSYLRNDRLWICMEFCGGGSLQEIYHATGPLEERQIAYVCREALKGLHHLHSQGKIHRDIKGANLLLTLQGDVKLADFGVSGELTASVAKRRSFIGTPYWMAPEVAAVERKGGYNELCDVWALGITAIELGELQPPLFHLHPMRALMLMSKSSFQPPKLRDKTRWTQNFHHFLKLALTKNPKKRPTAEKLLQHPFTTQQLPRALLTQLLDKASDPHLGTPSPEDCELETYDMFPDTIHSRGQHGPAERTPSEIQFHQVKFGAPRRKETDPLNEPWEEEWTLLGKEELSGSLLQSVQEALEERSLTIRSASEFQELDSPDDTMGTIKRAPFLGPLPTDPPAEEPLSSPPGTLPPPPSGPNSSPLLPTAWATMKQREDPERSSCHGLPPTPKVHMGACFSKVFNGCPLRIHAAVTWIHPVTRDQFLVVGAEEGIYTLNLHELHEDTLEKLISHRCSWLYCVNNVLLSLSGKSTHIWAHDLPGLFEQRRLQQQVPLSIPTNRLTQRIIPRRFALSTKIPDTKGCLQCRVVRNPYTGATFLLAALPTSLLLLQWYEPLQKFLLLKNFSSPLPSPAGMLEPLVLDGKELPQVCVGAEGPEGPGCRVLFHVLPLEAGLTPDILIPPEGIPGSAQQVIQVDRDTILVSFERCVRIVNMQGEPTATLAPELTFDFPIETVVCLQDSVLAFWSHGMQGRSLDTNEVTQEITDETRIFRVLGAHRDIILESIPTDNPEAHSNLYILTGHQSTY
Experimental: as §1

[3] = biological target: each specific kinase (kinase selectivity panel, Table 2) (Homo sapiens, UniProt O43318); assay: as above; settings: TAK1
Sequence of each specific kinase (kinase selectivity panel, Table 2) (Homo sapiens, UniProt O43318) (O43318 whole entry): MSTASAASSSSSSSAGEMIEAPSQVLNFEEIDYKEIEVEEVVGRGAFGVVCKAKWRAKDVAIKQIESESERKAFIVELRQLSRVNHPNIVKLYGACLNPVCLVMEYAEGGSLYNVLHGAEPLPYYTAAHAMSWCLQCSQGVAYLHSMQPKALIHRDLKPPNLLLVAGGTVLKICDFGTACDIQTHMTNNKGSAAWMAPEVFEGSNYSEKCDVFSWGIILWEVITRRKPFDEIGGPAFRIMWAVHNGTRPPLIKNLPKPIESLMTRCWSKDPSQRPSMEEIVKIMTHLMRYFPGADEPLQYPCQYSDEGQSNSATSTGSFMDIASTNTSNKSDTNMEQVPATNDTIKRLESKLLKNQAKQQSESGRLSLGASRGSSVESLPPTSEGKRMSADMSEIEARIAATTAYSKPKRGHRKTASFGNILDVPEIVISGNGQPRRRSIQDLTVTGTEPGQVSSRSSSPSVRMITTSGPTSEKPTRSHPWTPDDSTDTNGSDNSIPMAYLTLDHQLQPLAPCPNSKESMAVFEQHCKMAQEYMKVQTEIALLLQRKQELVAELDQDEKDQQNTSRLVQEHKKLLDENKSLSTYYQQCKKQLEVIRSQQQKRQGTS
Experimental: as §1

[4] = biological target: each specific kinase (kinase selectivity panel, Table 2) (Homo sapiens, UniProt P11309); assay: as above; settings: PIM1
Sequence of each specific kinase (kinase selectivity panel, Table 2) (Homo sapiens, UniProt P11309) (P11309 whole entry): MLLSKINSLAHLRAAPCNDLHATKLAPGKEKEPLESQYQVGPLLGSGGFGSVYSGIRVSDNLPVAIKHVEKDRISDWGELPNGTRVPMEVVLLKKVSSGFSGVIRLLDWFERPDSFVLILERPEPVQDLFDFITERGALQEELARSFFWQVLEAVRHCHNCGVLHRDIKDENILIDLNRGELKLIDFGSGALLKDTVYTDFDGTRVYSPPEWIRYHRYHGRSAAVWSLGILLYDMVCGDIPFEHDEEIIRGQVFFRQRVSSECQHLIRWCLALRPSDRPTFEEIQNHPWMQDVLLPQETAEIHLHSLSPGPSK
Experimental: as §1

[5] = biological target: each specific kinase (kinase selectivity panel, Table 2) (Homo sapiens, UniProt Q9UHD2); assay: as above; settings: TBK1
Sequence of each specific kinase (kinase selectivity panel, Table 2) (Homo sapiens, UniProt Q9UHD2) (Q9UHD2 whole entry): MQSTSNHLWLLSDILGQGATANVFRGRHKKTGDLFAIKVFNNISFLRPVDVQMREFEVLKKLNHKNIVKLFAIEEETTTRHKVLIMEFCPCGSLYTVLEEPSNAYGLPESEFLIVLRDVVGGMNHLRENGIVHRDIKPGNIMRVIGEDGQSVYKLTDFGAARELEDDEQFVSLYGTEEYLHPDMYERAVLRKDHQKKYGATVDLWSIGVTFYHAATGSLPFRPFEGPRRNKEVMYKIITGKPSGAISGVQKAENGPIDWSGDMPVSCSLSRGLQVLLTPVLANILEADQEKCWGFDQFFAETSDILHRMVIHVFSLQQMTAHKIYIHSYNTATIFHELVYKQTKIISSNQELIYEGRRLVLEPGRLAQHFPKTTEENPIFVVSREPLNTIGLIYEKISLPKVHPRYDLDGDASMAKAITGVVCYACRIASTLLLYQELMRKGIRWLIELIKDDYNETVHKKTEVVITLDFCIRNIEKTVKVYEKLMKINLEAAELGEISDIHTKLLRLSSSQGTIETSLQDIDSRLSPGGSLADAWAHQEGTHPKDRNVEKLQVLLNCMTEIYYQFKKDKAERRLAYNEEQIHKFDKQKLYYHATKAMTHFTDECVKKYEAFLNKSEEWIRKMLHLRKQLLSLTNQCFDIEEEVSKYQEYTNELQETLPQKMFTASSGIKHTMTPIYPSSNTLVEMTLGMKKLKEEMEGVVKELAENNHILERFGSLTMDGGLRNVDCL
Experimental: as §1

[6] = biological target: each specific kinase (kinase selectivity panel, Table 2) (Homo sapiens, UniProt O75582); assay: as above; settings: MSK1
Experimental: as §1

[7] = biological target: each specific kinase (kinase selectivity panel, Table 2) (Homo sapiens, UniProt Q9P289); assay: as above; settings: MST4
Sequence of each specific kinase (kinase selectivity panel, Table 2) (Homo sapiens, UniProt Q9P289) (Q9P289 whole entry): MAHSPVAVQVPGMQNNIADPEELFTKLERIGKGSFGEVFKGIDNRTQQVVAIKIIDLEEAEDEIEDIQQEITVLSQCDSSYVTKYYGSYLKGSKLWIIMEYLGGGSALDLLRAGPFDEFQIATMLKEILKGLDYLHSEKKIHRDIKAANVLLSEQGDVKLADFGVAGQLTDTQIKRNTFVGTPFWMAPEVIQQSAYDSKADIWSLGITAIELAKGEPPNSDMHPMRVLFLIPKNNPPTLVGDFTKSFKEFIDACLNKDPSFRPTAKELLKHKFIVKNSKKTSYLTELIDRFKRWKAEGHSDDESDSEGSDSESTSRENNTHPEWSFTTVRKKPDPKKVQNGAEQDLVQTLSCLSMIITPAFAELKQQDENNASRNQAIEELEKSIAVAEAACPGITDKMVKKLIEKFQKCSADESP
Experimental: as §1

[8] = biological target: T1, LRRK2 wild type (recombinant human, catalytic domain amino acids 970-2527, GST-tagged) (Homo sapiens, UniProt Q5S007); assay: LRRK2 wild type protein kinase assay ([γ-33P] ATP, peptide substrate […]), IC50; settings: LRRK2 (variant not given); read-out: Potency score, LRRK2 IC50
T1 construct: The wild type used was recombinant human, catalytic domain (amino acids 970-2527) GST-tagged, expressed in insect cells; GST; purchased Invitrogen Corporation PV4873; host or cells: insect cells
T1 sequence (Q5S007 970-2527): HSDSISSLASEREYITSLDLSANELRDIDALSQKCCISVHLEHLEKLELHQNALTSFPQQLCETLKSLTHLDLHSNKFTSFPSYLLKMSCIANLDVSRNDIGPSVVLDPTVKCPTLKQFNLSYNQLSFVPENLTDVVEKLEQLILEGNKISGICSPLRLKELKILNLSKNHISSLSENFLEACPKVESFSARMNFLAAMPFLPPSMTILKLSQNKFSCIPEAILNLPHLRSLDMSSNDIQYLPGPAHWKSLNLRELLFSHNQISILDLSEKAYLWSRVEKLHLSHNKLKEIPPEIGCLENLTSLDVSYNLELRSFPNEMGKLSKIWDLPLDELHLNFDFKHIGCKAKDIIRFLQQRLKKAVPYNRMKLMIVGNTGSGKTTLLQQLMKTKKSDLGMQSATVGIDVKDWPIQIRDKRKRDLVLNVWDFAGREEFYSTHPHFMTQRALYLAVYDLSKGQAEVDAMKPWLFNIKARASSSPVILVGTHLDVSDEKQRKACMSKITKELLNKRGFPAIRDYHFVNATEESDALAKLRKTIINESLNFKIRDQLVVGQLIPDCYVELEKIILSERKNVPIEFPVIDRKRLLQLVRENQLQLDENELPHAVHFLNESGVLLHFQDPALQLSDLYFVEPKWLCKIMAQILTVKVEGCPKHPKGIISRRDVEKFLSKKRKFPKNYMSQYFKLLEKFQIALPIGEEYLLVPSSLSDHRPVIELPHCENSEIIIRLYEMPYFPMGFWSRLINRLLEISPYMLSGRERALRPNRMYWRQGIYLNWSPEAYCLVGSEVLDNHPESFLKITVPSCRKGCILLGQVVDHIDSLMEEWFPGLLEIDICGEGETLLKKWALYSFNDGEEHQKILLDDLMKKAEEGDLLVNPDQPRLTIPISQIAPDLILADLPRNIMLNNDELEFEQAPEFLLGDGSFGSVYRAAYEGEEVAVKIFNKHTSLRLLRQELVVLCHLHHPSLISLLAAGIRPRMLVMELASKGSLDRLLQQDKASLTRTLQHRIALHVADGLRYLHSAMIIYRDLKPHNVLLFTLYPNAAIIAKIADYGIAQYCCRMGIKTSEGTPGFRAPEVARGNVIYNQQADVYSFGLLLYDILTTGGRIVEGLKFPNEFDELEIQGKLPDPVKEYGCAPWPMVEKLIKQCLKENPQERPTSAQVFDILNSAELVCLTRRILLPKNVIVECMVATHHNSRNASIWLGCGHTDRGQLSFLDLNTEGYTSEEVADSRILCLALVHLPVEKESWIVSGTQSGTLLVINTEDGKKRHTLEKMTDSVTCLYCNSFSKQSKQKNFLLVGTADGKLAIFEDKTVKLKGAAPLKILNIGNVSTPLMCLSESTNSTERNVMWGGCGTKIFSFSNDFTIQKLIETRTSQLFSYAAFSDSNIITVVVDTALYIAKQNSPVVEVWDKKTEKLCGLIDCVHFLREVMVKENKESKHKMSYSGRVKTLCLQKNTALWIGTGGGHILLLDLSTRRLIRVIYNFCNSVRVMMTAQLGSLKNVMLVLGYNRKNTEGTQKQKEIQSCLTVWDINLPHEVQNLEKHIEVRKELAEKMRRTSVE
In short: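 Insect-cell-expressed enzyme (~5 nM), no activation, incubated 180 min at ~21 °C in 50 mM Tris-HCl pH 7.5, 0.1 mM EGTA, 1 mM DTT, 10 mM MgCl2 with 100 μM peptide substrate and [γ-33P]ATP. Reaction stopped with orthophosphoric acid, captured on P81 filters and counted; IC50 from 10 concentrations in duplicate.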

Sequence of each specific kinase (kinase selectivity panel, Table 2) (Homo sapiens, UniProt O00141) (O00141 whole entry): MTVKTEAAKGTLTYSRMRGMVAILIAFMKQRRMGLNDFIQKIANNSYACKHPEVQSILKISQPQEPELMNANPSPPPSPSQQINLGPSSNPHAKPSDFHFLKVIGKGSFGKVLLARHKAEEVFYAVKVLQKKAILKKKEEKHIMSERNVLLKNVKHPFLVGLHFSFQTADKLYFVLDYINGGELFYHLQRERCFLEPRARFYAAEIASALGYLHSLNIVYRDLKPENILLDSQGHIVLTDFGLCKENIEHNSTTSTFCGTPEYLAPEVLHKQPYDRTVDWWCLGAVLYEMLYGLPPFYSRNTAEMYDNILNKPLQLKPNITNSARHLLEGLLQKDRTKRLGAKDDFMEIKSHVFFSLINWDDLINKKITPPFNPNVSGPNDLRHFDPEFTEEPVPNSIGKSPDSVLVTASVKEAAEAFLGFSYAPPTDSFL

Structure (SMILES)	percentage inhibition of SGK1 [1]	percentage inhibition of GCK [2]	percentage inhibition of TAK1 [3]	percentage inhibition of PIM1 [4]	percentage inhibition of TBK1 [5]	percentage inhibition of MSK1 [6]	percentage inhibition of MST4 [7]	IC50 [8]
CC[C@H](C)Oc1nccc2[nH]nc(C)c12 [Example 121, 4-((S)-sec-Butoxy)-3-methyl-1H-pyrazolo[4,3-c]pyridine]	23 percentage	68 percentage	72 percentage	15 percentage	6 percentage	48 percentage	23 percentage	< 100 nM
O=C(CCc1n[nH]c2ccnc(NC3CCCCC3)c12)N1CCC[C@H](c2ccccc2)C1 [Example 172, 3-(4-Cyclohexylamino-1H-pyrazolo[4,3-c]pyridin-3-yl)-1-((R)-3-phenyl-piperidin-1-yl)-propan-1-one]	1 percentage	19 percentage	9 percentage	0 percentage	14 percentage	1 percentage	10 percentage	< 100 nM
